Experimental data from patent publication US20250057994A1, “LABELED COMPOUNDS AND CALCIUM SENSING RECEPTOR LIGANDS FOR IMAGING AND USES THEREOF” (The University of North Carolina at Chapel Hill, priority 2021, published 2025).

Key:
[1] = In vivo stability in non-human primate blood samples; settings: for In vivo stability in blood: non-human primate
Method: (§1) In a non-human primate imaging experiment, the blood samples were drawn from vein at 1 and 3 h post injection.
(§2) Stability of [^18F]F-ZW-cinacalcet. The photoredox labeling method allows access to a new category of PET agent bearing a SP^2-F bond. [^18F]F-ZW-cinacalcet has improved stability compared to the CF3 labeling method. The formulated [^18F]F-ZW-cinacalcet was first incubated in PBS (Phosphate buffered saline containing 8% EtOH), and aliquots were taken for analysis at different time points. […] Subsequently, the in vivo stability of [^18F]F-ZW-cinacalcet was tested in a non-human primate. After injection, a blood sample was collected at 1 and 3 h time points. […] Because the imaging was finished within the first hour, the metabolites were not determined in this study

[2] = Octanol water partition coefficient (Log P); type: physicochemical; settings: 1-octanol/water; 1-octanol and water system, average value
Excerpt: Determination of Octanol water Partition Coefficient (Log P).

[3] = In vitro stability of 18F-cinacalcet (incubation, HPLC purity); type: physicochemical
Method: as §1, §2

CSR [4] = target: T1, CSR (Rattus norvegicus, UniProt P48442); assay: Small animal PET/CT imaging of parathyroid in rats (static and dynamic); type: in vivo
T1 construct: Normal rats were used as an animal model for initial CSR agent imaging; from tissue; host or cells: rat parathyroid (also lung and other tissues), in vivo and excised sections
T1 sequence (P48442 20-1079): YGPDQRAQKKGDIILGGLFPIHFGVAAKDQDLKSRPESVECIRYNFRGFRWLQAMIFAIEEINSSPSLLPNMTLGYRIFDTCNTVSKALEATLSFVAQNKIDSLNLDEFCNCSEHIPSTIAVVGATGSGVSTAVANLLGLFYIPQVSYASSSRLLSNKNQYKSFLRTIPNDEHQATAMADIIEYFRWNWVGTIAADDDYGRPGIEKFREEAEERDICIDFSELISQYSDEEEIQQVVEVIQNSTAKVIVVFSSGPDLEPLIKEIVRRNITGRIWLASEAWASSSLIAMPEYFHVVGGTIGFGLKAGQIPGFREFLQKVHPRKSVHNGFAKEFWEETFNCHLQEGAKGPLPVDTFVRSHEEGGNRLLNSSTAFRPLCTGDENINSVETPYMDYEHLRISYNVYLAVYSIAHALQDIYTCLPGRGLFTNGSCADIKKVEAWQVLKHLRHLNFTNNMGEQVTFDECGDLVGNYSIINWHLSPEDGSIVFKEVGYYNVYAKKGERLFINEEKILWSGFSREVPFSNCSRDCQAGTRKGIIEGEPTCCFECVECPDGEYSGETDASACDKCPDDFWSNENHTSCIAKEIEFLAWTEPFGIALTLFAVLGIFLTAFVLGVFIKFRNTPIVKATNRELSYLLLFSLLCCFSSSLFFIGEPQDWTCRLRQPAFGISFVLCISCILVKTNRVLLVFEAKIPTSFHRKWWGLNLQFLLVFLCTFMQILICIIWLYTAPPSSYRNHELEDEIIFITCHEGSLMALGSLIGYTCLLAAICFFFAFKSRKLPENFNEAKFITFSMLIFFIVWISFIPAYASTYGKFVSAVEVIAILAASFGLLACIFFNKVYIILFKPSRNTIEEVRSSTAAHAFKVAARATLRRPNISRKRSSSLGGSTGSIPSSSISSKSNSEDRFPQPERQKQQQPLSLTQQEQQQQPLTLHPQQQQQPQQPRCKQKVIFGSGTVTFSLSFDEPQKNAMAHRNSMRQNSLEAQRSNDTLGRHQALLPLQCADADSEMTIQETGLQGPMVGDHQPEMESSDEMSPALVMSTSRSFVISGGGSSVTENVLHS
Method: Normal rats were used as an animal model for initial CSR agent imaging. Surgical dissection of the mouse parathyroid gland is too technically difficult, in contrast to the rat which has approximately 10 times the body mass of a mouse. Analyses were performed by individuals with extensive experience on parathyroid identification for pathology. autoradiography, and microscope study. In brief, animals were anesthetized with isoflurane. For PET probes, dynamic PET imaging was performed after the administration of 1 to 2 mCi of tracer, and animals were imaged with 2 h dynamic scan. A CT scan was also obtained for anatomic registration and attenuation correction. Images were reconstructed to create representative dynamic images for the study (10 min epochs). These images were qualitatively graded to assess the visibility of the parathyroid gland against background tissues. PET kinetic modeling was also performed to evaluate the relative kinetics of uptake of the parathyroid gland compared to the thyroid and other tissues.
^18F-cinacalcet could detect parathyroid gland in rats by targeting CSR. Parathyroid gland are very small (3-5 mm in human) and generally below the detection limit of most imaging methods. The novel CSR PET agent ^18F-cinacalcet was injected in rat and small animal PET imaging was performed. […] In order to confirm the observed signal did come from the very small parathyroid gland instead of thyroid or other tissue, the rats were sacrificed and the localization of radioactivity in the gland tissue was evaluated by autoradiography coupled with pathology staining of neighboring slides.
Small animal-PET CT imaging of parathyroid in rodents. Because the parathyroid is rather small, rats were used instead of mice to evaluate the agent. Static PET scans were acquired in rats at 0.5 h, 1 h and 2 h post injection of [^18F]F-ZW-cinacalcet. Representative coronal PET images are shown in FIG. 15 panel A. Parathyroid could be visualized on the image at the early time point of 0.5 h with a radiotracer uptake of 0.28±0.16% ID/g and parathyroid/muscle ratio of 4.9±0.93.
Dynamic PET images of [^18F]F-ZW-cinacalcet in rats were acquired for 60 minutes. [^18F]F-ZW-cinacalcet accumulated into parathyroid at the earliest timepoints and peaked at about 7 min post injection (0.33±0.05% ID/g), followed by a gradual decline to 0.17±0.01% ID/g at 60 min post injection.
Uptake peaked at 2 min post injection (lung: 1.00±0.19% ID/g; heart: 0.95±0.14% ID/g), with similar kinetics until 10 min post injection. Then, the heart uptake dropped rapidly to 0.15±0.27% ID/g at 60 min post injection, whereas the lung uptake remained at a high level at 60 min post injection of 0.41±0.07% ID/g. In addition, the radiotracer was also observed entering into the brain with a stable uptake level of ˜0.2% ID/g.

CSR [5] = target: T1, CSR; assay: Autoradiography with matched CSR IHC staining of excised rat tissue; type: in vivo; settings: rats
Method: After the imaging of each animal, the parathyroid glands were carefully dissected out and the uptake in parathyroid gland was measured, then subsequently evaluated pathologically to confirm the histology. Autoradiography was performed to study its distribution in gland area. Optical imaging guidance during the surgical procedures was also performed using the developed CSR PET-fluorescence probes. During excision, the surgeon also graded the visibility of the lesions with and without the use of fluorescence. Other critical organs, including the thyroid gland, nearby tissues, and major organs were also dissected out to evaluate the relative uptake within these organs. The localization of radioactivity in the gland tissue was also confirmed by autoradiography coupled with pathology staining of neighboring slides.
^18F-cinacalcet could detect parathyroid gland in rats by targeting CSR. […] In order to confirm the observed signal did come from the very small parathyroid gland instead of thyroid or other tissue, the rats were sacrificed and the localization of radioactivity in the gland tissue was evaluated by autoradiography coupled with pathology staining of neighboring slides.
Autoradiography and pathology. […] Quantitative analysis of autoradiography and IHC staining was expressed as a mean integrated density (Mean IntDen). […]

[6] = dynamic PET, 2 min post injection
[7] = dynamic PET, 60 min post injection
[8] = static PET, 0.5 h post injection

Compound: C[C@@H](NCCCc1cccc(C(F)(F)F)c1)c1ccc([18F])c2ccccc12 [[^18F]F-ZW-cinacalcet]
- Blood metabolic stability ([1]; Rhesus Macaque, overall judgement): acceptable stability for imaging applications
- In vivo stability in blood ([1]; 1 h post injection): majority of the agent remained untouched
- In vivo stability in blood ([1]; 1 h post injection, listed as 18F-cinacalcet): rather stable
- In vivo stability in blood ([1]; 3 h post injection): hydrophilic metabolite was observed
- In vivo stability in blood ([1]; 3 h post injection, listed as 18F-cinacalcet): significant metabolites are observed
- logP [2]: 1.95 ± 0.02
- In vitro stability, purity ([3]; 6 h time point): > 90%
- Stability in PBS, purity ([3]; PBS containing 8% EtOH, 4 h post incubation): > 95%
- Brain uptake, stable level (CSR [4]; dynamic PET): ~0.2 % ID/g
- Heart uptake at peak (CSR [4]; [6]): 0.95±0.14 % ID/g
- Lung uptake at peak (CSR [4]; [6]): 1.00±0.19 % ID/g
- Muscle uptake (CSR [4]; dynamic PET, 20 min post injection): < 0.06 % ID/g
- Heart uptake (CSR [4]; [7]): 0.15±0.27 % ID/g
- Lung uptake (CSR [4]; [7]): 0.41±0.07 % ID/g
- Parathyroid uptake (CSR [4]; [7]): 0.17±0.01 % ID/g
- Parathyroid uptake at peak (CSR [4]; dynamic PET, about 7 min post injection): 0.33±0.05 % ID/g
- Time of peak lung and heart uptake (CSR [4]; dynamic PET, post injection): 2 min
- Time of peak parathyroid uptake (CSR [4]; dynamic PET, post injection): about 7 min
- PET signal in neck area (CSR [4]; small animal PET): clearly demonstrated two hot spots
- Parathyroid radiotracer uptake (CSR [4]; [8]): 0.28±0.16 % ID/g
- Parathyroid/muscle ratio (CSR [4]; [8]): 4.9±0.93
- Parathyroid radioactivity (CSR [4]; static PET, 2 h time point): reverted to the background level
- Parathyroid/thyroid ratio in autoradiography (Mean IntDen) (CSR [5]; excised tissue sections): 6.60±1.28
- Localization of radioactivity by autoradiography and pathology staining (CSR [5]; neighboring slides): correlated well with parathyroid gland
